Reference: patent US20200017495A1, “NOVEL HETEROCYCLIC COMPOUNDS AND THEIR USE IN PREVENTING OR TREATING BACTERIAL INFECTIONS” (priority 2017, published 2020)

Tests used:
Assay type in all cases: cell-based
[1] = system: Proteus mirabilis (PMI) isolates; experiment: microbe, parasite or virus in culture
Method in brief: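 Broth microdilution in cation-adjusted Mueller-Hinton broth, inoculum 5.10^5 CFU/mL, 16-20 h at 35° C in ambient air, on genotyped isolates. Compound MIC, alone or with an antibacterial, taken visually as lowest concentration preventing growth; antibacterial MIC determined at each compound concentration.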

[2] = system: Providencia stuartii (PST) isolates; experiment: MIC of compounds alone and combined with antibacterials, broth microdilution (CLSI)
Method in brief: (§1)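 Genotyped isolates; cpd ± antibacterial, DMSO spots; ca-MHB, 5.10^5 CFU/mL; 35° C, 16-20 h, air; visual MIC; ATB MIC per cpd concentration.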

[3] = system: Salmonella typhimurium (STY) isolates; experiment: as above; conditions: strain STY S3371; genotype OXA-1
Method in brief: as §1

[4] = system: Enterobacter aerogenes (EAE) isolates; experiment: as above
Experimental: (§2) Method 2: MIC of Compounds Alone and Combined with Antibacterials Against Bacterial Isolates
(§3) Compounds of the present invention were assessed against genotyped bacterial strains (Table 3, 4) alone or in combination with an antibacterial (Table 2). […] Log phase bacterial suspensions were adjusted to a final density of 5.10^5 CFU/mL in cation-adjusted Mueller-Hinton broth (ca-MHB; Becton-Dickinson and Company) and added to each well (98 μL). Microplates were incubated for 16-20 h at 35° C. in ambient air. The MIC of the compounds was defined as the lowest concentration of said compounds that prevented bacterial growth as read by visual inspection. The MIC of ATB at each compound concentration was defined as the lowest concentration of ATB that prevented bacterial growth as read by visual inspection.

[5] = system: Klebsiella oxytoca (KOX) isolates; experiment: as above
Experimental: as §2, §3

[6] = system: Morganella morganii (MMO) isolates; experiment: as above
Experimental: as §2, §3

[7] = system: Citrobacter freundii (CFR) isolates; experiment: as above
Experimental: as §2, §3

`CO/N=C(\C(=O)N[C@@H]1C(=O)N2C(C(=O)O)=C(COC(N)=O)CS[C@H]12)c1ccco1` [FUR, Cefuroxime] was tested, and the MIC ([1]; strain PMI UFR82, genotype CMY-2) was 16 µg/mL, the MIC ([1]; strain PMI UFR120, genotype TEM-1, SHV-11, CTX-M-14) was greater than 256 µg/mL and the MIC ([1]; strain PMI UFR121, genotype TEM-1, TEM-52) was greater than 256 µg/mL. For the same compound, the MIC ([1]; strain PMI UFR122, genotype TEM-1, CTX-M-15) was greater than 256 µg/mL, the MIC ([1]; strain PMI UFR123, genotype CTX-M-1) was greater than 256 µg/mL and the MIC ([1]; strain PMI UFR124, genotype CTX-M-2) was greater than 256 µg/mL. For the same compound, the MIC ([1]; strain PMI UFR125, genotype CTX-M-71) was greater than 256 µg/mL, the MIC ([1]; strain PMI UFR126, genotype TEM-2, PER-1) was greater than 256 µg/mL and the MIC ([1]; strain PMI UFR127, genotype VEB-1) was greater than 256 µg/mL. The MIC ([1]; strain PMI UFR129, genotype TEM-1, VEB-6) was greater than 256 µg/mL, the MIC ([1]; strain PMI UFR130, genotype CMY-2) was 8 µg/mL and the MIC ([1]; strain PMI UFR237, genotype VEB-6) was greater than 256 µg/mL. The MIC ([2]; strain PST UFR94, genotype CTX-M-14) was greater than 256 µg/mL, the MIC ([2]; strain PST UFR95, genotype TEM-24) was 128 µg/mL and the MIC ([2]; strain PST UFR235, genotype VEB-1) was 256 µg/mL. For the same compound, the MIC [3] was 32 µg/mL, the MIC ([4]; strain EAE 49469, genotype AmpC) was greater than 128 µg/mL and the MIC ([4]; strain EAE 200261, genotype TEM-x, AmpC) was greater than 256 µg/mL. The MIC ([4]; strain EAE UFR199, genotype TEM-1b, SHV-12, KPC-2, OXA-9) was greater than 256 µg/mL, the MIC ([4]; strain EAE UFR201, genotype TEM-1, SHV-12, CTX-M-15) was greater than 256 µg/mL and the MIC ([4]; strain EAE UFR202, genotype TEM-24) was greater than 256 µg/mL. The MIC ([4]; strain EAE UFR213, genotype TEM-24) was greater than 256 µg/mL, the MIC ([5]; strain KOX UFR21, genotype TEM-1, CTX-M-15, OXA-48) was greater than 256 µg/mL and the MIC ([5]; strain KOX UFR173, genotype OXY2-2) was greater than 256 µg/mL. The MIC ([5]; strain KOX UFR223, genotype SHV-11, OXA-48) was 8 µg/mL, the MIC ([5]; strain KOX UFR224, genotype CTX-M-15, OXA-48) was greater than 256 µg/mL and the MIC ([6]; strain MMO 200321, genotype TEM-1, CTX-M-15, OXA-1) was greater than 256 µg/mL. The MIC ([6]; strain MMO UFR144, genotype TEM-1, CTX-M-15) was greater than 256 µg/mL, the MIC ([6]; strain MMO UFR240, genotype CTX-M-9) was greater than 256 µg/mL and the MIC ([6]; strain MMO UFR241, genotype TEM-1, CTX-M-15) was greater than 256 µg/mL. It also gave an MIC ([6]; strain MMO UFR242, genotype TEM-52) greater than 256 µg/mL, an MIC ([6]; strain MMO UFR243, genotype DHA-1) of 128 µg/mL and an MIC ([6]; strain MMO UFR244, genotype DHA-1) of 64 µg/mL. For the same compound, the MIC ([6]; strain MMO UFR245, genotype DHA-1) was 128 µg/mL, the MIC ([6]; strain MMO UFR246, genotype DHA-1) was 128 µg/mL and the MIC ([6]; strain MMO UFR247, genotype DHA-1) was greater than 256 µg/mL. It also gave an MIC ([7]; strain CFR UFR10, genotype OXA-48) greater than 256 µg/mL, an MIC ([7]; strain CFR UFR11, genotype TEM-1, OXA-1, OXA-48) greater than 256 µg/mL and an MIC ([7]; strain CFR UFR83, genotype TEM-3, AmpC) greater than 256 µg/mL. For the same compound, the MIC ([7]; strain CFR UFR146, genotype TEM-1, KPC-2) was greater than 256 µg/mL, the MIC ([7]; strain CFR UFR248, genotype CTX-M-15) was greater than 256 µg/mL and the MIC ([7]; strain CFR UFR249, genotype TEM-1, CTX-M-15) was greater than 256 µg/mL. For the same compound, the MIC ([7]; strain CFR UFR250, genotype TEM-1, SHV-28, CTX-M-15) was greater than 256 µg/mL, the MIC ([7]; strain CFR UFR253, genotype TEM-1, SHV-12, OXA-48) was 32 µg/mL and the MIC ([7]; strain CFR UFR254, genotype VEB-1b, OXA-48, qnrA) was 32 µg/mL.
